Data as given in PubChem BioAssay (NCI).
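Values below derive from 48-hour exposures of cells grown in 96-well plates, with endpoints linearly interpolated between the two concentrations bracketing the appropriate inhibition level. At the TGI there is no net growth.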

What was measured:
Assay in all cases: inhibition of tumour cell growth, NCI panel, 48 h
SK-MEL-5 melanoma = system: SK-MEL-5 melanoma
SNB-19 CNS = system: SNB-19 CNS
NCI-H226 lung = system: NCI-H226 lung
MOLT-4 leukemia = system: MOLT-4 leukemia
MDA-MB-435 = system: MDA-MB-435
OVCAR-3 ovarian = system: OVCAR-3 ovarian
786-0 renal = system: 786-0 renal
M14 melanoma = system: M14 melanoma
NCI-H23 lung = system: NCI-H23 lung
SF-539 CNS = system: SF-539 CNS
OVCAR-5 ovarian = system: OVCAR-5 ovarian
HOP-92 NSCLC = system: HOP-92 NSCLC
MCF7 breast = system: MCF7 breast
SK-MEL-28 melanoma = system: SK-MEL-28 melanoma
CAKI-1 renal = system: CAKI-1 renal
HCC-2998 colon = system: HCC-2998 colon
RXF 393 renal = system: RXF 393 renal
RPMI-8226 leukemia = system: RPMI-8226 leukemia
HS 578T breast = system: HS 578T breast

Measured: TGI

c1ccc2sc(C3(N4CCCC4)CCCCCC3)cc2c1
27.7 µM: 786-0 renal
33.9 µM: SK-MEL-5 melanoma
27.6 µM: OVCAR-3 ovarian
25.7 µM: RXF 393 renal
31 µM: M14 melanoma
31.7 µM: MDA-MB-435
25.2 µM: OVCAR-5 ovarian
37.9 µM: SK-MEL-28 melanoma
41.2 µM: SF-539 CNS
27.1 µM: HCC-2998 colon
33.2 µM: MCF7 breast
61.2 µM: CAKI-1 renal
29.3 µM: MOLT-4 leukemia
40.3 µM: NCI-H226 lung
30 µM: HOP-92 NSCLC
40.6 µM: NCI-H23 lung
29.9 µM: SNB-19 CNS

Cc1cc2nc3c(C#N)c(-c4ccccc4)cc(Nc4ccc(Cl)cc4)n3c2cc1C
not listed: MOLT-4 leukemia | HOP-92 NSCLC | HS 578T breast
> 100 µM: all other assays above

N#C/C(C(=O)Nc1ccccc1)=C(/N)N1CCOCC1
not listed: RXF 393 renal | HS 578T breast
> 100 µM: all other assays above

COc1cc(Nc2cnc3cc(F)c(F)cc3n2)cc(OC)c1OC
not listed: HCC-2998 colon | RPMI-8226 leukemia
> 100 µM: all other assays above

CC(=O)OCCn1cnc2nc(Nc3ccccc3)nc(Cl)c21
34.4 µM: HOP-92 NSCLC
not listed: M14 melanoma | CAKI-1 renal | RXF 393 renal
> 100 µM: all other assays above

COc1ccc(C2CC(=O)CC(c3ccc(OC)cc3)C23C(=O)NC(=O)NC3=O)cc1 (stereo not drawn)
64.8 µM: MOLT-4 leukemia
78.5 µM: HOP-92 NSCLC
43.7 µM: SK-MEL-28 melanoma
44.4 µM: OVCAR-3 ovarian
45.7 µM: HCC-2998 colon
64.7 µM: NCI-H23 lung
68 µM: SK-MEL-5 melanoma
65.3 µM: CAKI-1 renal
61.6 µM: MDA-MB-435
not listed: RPMI-8226 leukemia | HS 578T breast
> 100 µM: all other assays above

C=CCNC1=C2C[C@@H](C)C[C@@H](OC)[C@H](OC(=O)CCCCN)[C@H](C)/C=C(\C)[C@@H](OC(N)=O)[C@H](OC)/C=C\C=C(/C)C(=O)NC(=CC1=O)C2=O
52.9 µM: MOLT-4 leukemia
27 µM: M14 melanoma
35.7 µM: HOP-92 NSCLC
26.5 µM: 786-0 renal
23.8 µM: SNB-19 CNS
30 µM: NCI-H23 lung
25.6 µM: MDA-MB-435
25.5 µM: SK-MEL-5 melanoma
29.2 µM: RXF 393 renal
58.4 µM: HS 578T breast
13.6 µM: HCC-2998 colon
36.9 µM: SK-MEL-28 melanoma
34 µM: OVCAR-5 ovarian
35.1 µM: RPMI-8226 leukemia
33.2 µM: CAKI-1 renal
7.66 µM: OVCAR-3 ovarian
12.4 µM: MCF7 breast

COC(=O)Cc1cc(O)c(C/C=C(\C)CC/C=C(\C)C(O)C(=O)C=C(C)C)cc1O (stereo not drawn)
86 µM: SNB-19 CNS
36.9 µM: MOLT-4 leukemia
51.8 µM: NCI-H226 lung
69.6 µM: RPMI-8226 leukemia
47.7 µM: HOP-92 NSCLC
93.3 µM: NCI-H23 lung
40.5 µM: SF-539 CNS
40.4 µM: SK-MEL-5 melanoma
89.5 µM: MCF7 breast
> 100 µM: 786-0 renal | HS 578T breast | OVCAR-5 ovarian
30 µM: RXF 393 renal
42.5 µM: OVCAR-3 ovarian
45.4 µM: MDA-MB-435
64.8 µM: M14 melanoma

COC(C)(C)C1=CCC(C)CC1 (stereo not drawn)
not listed: NCI-H226 lung
> 100 µM: all other assays above

CC1CC(N)=Nc2ccccc2N1 (stereo not drawn)
not listed: SF-539 CNS | HOP-92 NSCLC | MCF7 breast
> 100 µM: all other assays above

S=C(c1c[nH]c2ccccc12)N1CCOCC1
not listed: HOP-92 NSCLC | HCC-2998 colon
> 100 µM: all other assays above

CCOC(=O)C1=C(C)N(C)C23OC4(C(=O)OC)CC2c2ccccc2C1N3C4=O (stereo not drawn)
not listed: RXF 393 renal | HS 578T breast
> 100 µM: all other assays above

O=Cc1cc2c(cc1-c1c(C=O)ccc3c1OCO3)OCO2
not listed: NCI-H226 lung | OVCAR-5 ovarian | RXF 393 renal
> 10 µM: all other assays above

CCOC(=O)C1(Cc2ccc3c(c2)CCC3)Cc2cc3c(cc2C1)CCC3
33 µM: MOLT-4 leukemia
55.9 µM: M14 melanoma
64.4 µM: HCC-2998 colon
99.4 µM: SF-539 CNS
81.9 µM: NCI-H226 lung
49.2 µM: RPMI-8226 leukemia
40.4 µM: MCF7 breast
not listed: SK-MEL-5 melanoma | HOP-92 NSCLC | RXF 393 renal
> 100 µM: all other assays above
